Experimental data as given in PubChem BioAssay AID504936 (NMMLSC, 2011).
The source made the active and inactive calls.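 How the source made its calls: active means cytostatic effect above 60% on a scale from DMSO controls to rapamycin controls, holding yeast in G1/G0 phase; inactive means the rest.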

Tested on: S. cerevisiae BY4741 DNA content flow cytometry, cell cycle
Assay: S. cerevisiae cell cycle DNA content profile – flow cytometry (AID 504936);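 further: yeast exposed to compound for three five or seven days before fixation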
Settings: at 10 µM; for G1/G0 population: stronger effect = higher value; for G2 population: measured here: G2 phase fraction, stronger effect = lower value; for apoptotic population: measured here: apoptotic fraction

SMILES | G1/G0 population | G2 population | apoptotic population
C[n+]1c2ccccc2nc2ccc(NCCO)cc21 | 77.6% (inactive) | 7.26% | 8.98%
O=C1c2c(O)ccc(O)c2C(=O)c2c(NCCNCCO)ccc(NCCNCCO)c21 | 0.072% (inactive) | 0% | 99.9%
O=C(CN1CCN(c2ccccn2)CC1)Nc1ccccc1F | 74% (inactive) | 12.1% | 12%
FC(F)(F)c1nc2cc3nc4ccccc4[nH]c3cc2n1 | 71.5% (inactive) | 10.6% | 12.3%
O=C(/C=C/c1cccs1)NC(=S)NNC(=O)Cc1cccs1 | 73% (inactive) | 11.1% | 14%
O=C(c1cccc2nc3ccccc3nc12)N1CCOCC1 | 76.5% (inactive) | 12.1% | 9.75%
CC(=O)Nc1ccc2nc3ccccc3nc2c1 | 72.9% (inactive) | 11.9% | 12.6%
CSc1nnc(-c2ccc([N+](=O)[O-])cc2)o1 | 79.2% (inactive) | 10.8% | 8.39%
O=C(/C=C/c1ccccc1)NC(=S)NNC(=O)Cc1cccs1 | 80.1% | 3.91% | 12.7%
Cc1cc(C)c2[nH]c3nc(SCC(=O)O)nnc3c2c1 | 79.8% (inactive) | 10.9% | 7.85%
Cc1cc2nc3ccc(N(C)C)cc3nc2cc1N | 67.3% (inactive) | 5.62% | 20.3%
O=c1[nH]c(O)c(C=Nc2ccc(F)c(Cl)c2)c(=O)[nH]1 | 78.7% (inactive) | 12.7% | 7.01%
Oc1cccc2nc3ccccc3nc12 | 43% (inactive) | 9.27% | 44%
CCN(CC)C(=O)CSc1nnc(-c2cccc(OC)c2)o1 | 70.5% (inactive) | 12.1% | 15.5%
CCN(CC)C(=O)c1ccc2nc3ccccc3nc2c1 | 78.8% (inactive) | 11.3% | 8.05%
CCn1c2ccccc2c2n[nH]c(=S)nc21 | 80% (inactive) | 11.1% | 6.8%
COc1ccc2cc(C3CC(c4ccco4)=NN3S(=O)(=O)c3ccccc3)c(Cl)nc2c1 (stereo not given) | 79% (inactive) | 12.7% | 6.88%
O=C(Nc1cccc(Cl)c1)Nc1ccc2nccnc2c1 | 77.4% (inactive) | 12% | 8.93%
CC(C)CSc1nnc2c3ccccc3n(C)c2n1 | 75% (inactive) | 12% | 11.2%
Cc1ccc(-c2nn(C(C)(C)C)c3ncnc(N)c23)cc1 | 70.3% (inactive) | 9.27% | 16.3%
C#CCSc1ccc(-c2ccc([N+](=O)[O-])cc2)o1 | 79.6% (inactive) | 11% | 8.02%
O=C(Nc1ccc2nc3ccccc3nc2c1)c1ccc(Br)cc1 | 77.7% (inactive) | 12.5% | 8.37%
N#CCc1nn(-c2ccccc2)c2ncnc(N)c12 | 78.8% (inactive) | 10.6% | 8.22%
CC(C)(C)n1nc(-c2ccc(F)cc2)c2c(N)ncnc21 | 70.5% (inactive) | 3.33% | 14.9%
Cc1cc(C)cc(NC(=O)CN2CCN(c3ccccn3)CC2)c1 | 73.5% (inactive) | 12.4% | 12.2%
CC(C)OC(=O)CSc1nnc(-c2ccc(Cl)cc2Cl)o1 | 79.6% (inactive) | 12.9% | 6.08%
Cn1c(O)c(C(=Nc2ccc(F)cc2)c2ccccc2Cl)c(=O)n(C)c1=O | 72% (inactive) | 14.8% | 11.1%
O=C(O)c1cnc2ccccc2n1 | 78.8% (inactive) | 12.5% | 7.02%

SMILES | G1/G0 population | G2 population | apoptotic population
COc1cccc2nc3cc(C)c(C)cc3nc12 | 64.8% (inactive) | 11% | 21.7%
c1ccc2nc3ccccc3nc2c1 | 71.8% (inactive) | 13.2% | 12.3%
COc1ccc2c(c1)c1nnc(SC)nc1n2C | 58.9% (inactive) | 11.7% | 27.7%
CNc1ccc2nc3ccccc3[n+](C)c2c1 | 52.8% (inactive) | 8.35% | 36.6%
Cn1c(=O)[nH]c2nncnc2c1=O | 73.1% (inactive) | 12% | 12.7%
CC(C)(C)Nc1ncnc2c1cnn2-c1ccccc1 | 62.9% (inactive) | 10.3% | 25%
COc1ccc2nc3ccccc3[n+]([O-])c2c1 | 69.4% (inactive) | 13.5% | 15%
Nc1cc2nc3ccccc3nc2cc1N | 79% (inactive) | 9.84% | 9%
O=C(OCc1c(F)cccc1Cl)c1cnc2ccccc2n1 | 73.8% (inactive) | 13.8% | 10.5%
Cc1ccccc1NC(=O)c1cccc2nc3ccccc3nc12 | 72.9% (inactive) | 12.2% | 13.2%
[O-][n+]1c2ccccc2[n+]([O-])c2cc(O)ccc21 | 48.4% (inactive) | 8.17% | 37.1%
C[C@@]12C(=O)OC(=O)[C@]1(C)C1CCC2O1 | 61.6% (inactive) | 9.56% | 24.9%
c1ccc2[nH]c3cc4ncnc4cc3nc2c1 | 58.6% (inactive) | 8.26% | 30.4%
CCCCCNC(=O)C(=O)C1C(=O)Nc2ccccc21 (stereo not given) | 71.4% (inactive) | 6.62% | 20%
OCC[n+]1c2ccccc2nc2ccc(N3CCOCC3)cc21 | 74.9% (inactive) | 12.4% | 11%
COc1ccc2nc3ccccc3nc2c1 | 65.9% (inactive) | 12.7% | 18.8%
CC(C)OC(=O)c1ccc2nc3ccccc3nc2c1 | 78.1% (inactive) | 12.4% | 7.62%
CCN(CC)C(=O)c1cccc2nc3ccccc3nc12 | 42.7% (inactive) | 8.88% | 46.6%
C=CCOn1c(=O)c(-c2cccs2)[n+]([O-])c2ccccc21 | 73.2% (inactive) | 13.9% | 11.3%
CN(C)CCNc1ncnc2c1cnn2-c1ccc(Cl)cc1 | 52.4% (inactive) | 10.3% | 35.5%
COc1ccc2nc3ccccc3nc2c1NC(=O)c1ccccc1Cl | 79.9% (inactive) | 12.2% | 6.11%
COc1ccc2nc3ccccc3nc2c1N | 56.9% (inactive) | 10.2% | 29.3%
CCc1nc(NC(C)(C)C)c2cnn(-c3ccccc3)c2n1 | 75.3% (inactive) | 13.1% | 9.99%
N#CC(c1nc2ccccc2nc1N1CCCC1)S(=O)(=O)c1ccccc1 (stereo not given) | 75.8% (inactive) | 11.9% | 9.82%
CCC(=Nc1ccccc1O)C1=C(O)CC(c2ccccc2)CC1=O (stereo not given) | 74.7% (inactive) | 12.1% | 12%
C=CCSc1ccc(-c2ccc([N+](=O)[O-])cc2)o1 | 65.8% (inactive) | 10.1% | 21.7%
CC(C)(C)n1nc(-c2ccc(Cl)cc2)c2c(N)ncnc21 | 70.8% (inactive) | 0.23% | 12.6%
